The record followed here is patent US20100234402A1, “METHODS AND COMPOSITIONS FOR TREATING SPINAL MUSCULAR ATROPHY” (priority 2007, published 2010).

Bounds are passed on as bounds.

The target of experiment [1] is T1, SMN complex (Homo sapiens, UniProt Q16637).
T1 construct: HeLa cell extracts (containing the SMN complex and all the components required for Sm core assembly); endogenous in cells; host or cells: HeLa: S3 cytoplasmic or total extracts for in vitro reactions, HeLa PV total extracts for compound-treated cells
The experiment is described as follows: Magnetic beads snRNP assembly assay in vitro with cell extracts. The format is biochemical. The following applies: for IC50: extracts of untreated cells, read-out: IC50, inhibition of the activity of the SMN complex in vitro. The procedure:
(§1) Magnetic beads snRNP assembly assay was carried out in the presence of increasing amounts of H2O2. IC50 was calculated from the dose-response curve. The error bars represent SDs from 3 independent measurements. (B) Effect of menadione on the activity of the SMN complex in vitro. The same experimental procedure was carried out as in (A), except that menadione was used instead. (C) Dose-dependent effect of menadione on the activity of the SMN complex in cells. HeLa cells were treated with menadione at the indicated concentrations or with DMSO control for 1 hour. The activity of the SMN complex in extracts from various treated cells was measured in comparison to DMSO control cell extract (100% activity) by magnetic beads snRNP assembly assay. The error bars represent SDs from 3 independent measurements. (D) Extracts from (C) mixed with sample buffer without (−DTT) or with (+DTT) reducing agent were resolved by SDS-PAGE and analyzed by Western blot of the entire membrane with anti-SMN antibody 62E7. The molecular mass markers in 41 kDa are indicated on the left. “redSMN” indicates monomer SMN migrating at normal molecular mass and “oxSMN” indicates disulfide-crosslinked SMN upon oxidation. (E) β-lapachone and menadione generate ROS in live cells. HeLa cells were incubated with ROS indicator dye H2DCFDA (10 μM) or without dye as a control for 30 minutes, and then treated with the compounds at the indicated concentrations or DMSO as a control. Fluorescence images were acquired 30 minutes after the treatment.
(A) Cell extracts treated with 20 μM β-lapachone, or 20 μM β-lapachone together with 20 μM DTT, or DMSO control were analyzed by non-reducing Western blot. The relative levels of monomer SMN (“redSMN”) were calculated as the percentage of that in DMSO control and shown by the blue bar. Assembly activities of the SMN complex were measured by magnetic beads snRNP assembly assay using the same set of treated extracts and shown by the red bar. The error bar represents SDs from 3 independent experiments. (B) The sulfhydryl modifying reagent iodoacetamide inhibits the activity of the SMN complex. In vitro assembly assays were performed in the presence of various concentrations of iodoacetamide. The activity of the SMN complex in the absence of iodoacetamide was set as 100% activity, and the relative activity at each iodoacetamide concentration was calculated in comparison and graphed. The error bars represent SDs from triplicate samples.
For quantitative in vitro assembly assays on magnetic beads, cytoplasmic extracts were prepared and used for assembly on biotin-labeled snRNAs using the standard reconstitution conditions in 96-well plates. Following the reactions, Y12 antibodies immobilized onto the magnetizable Dynabeads Protein A (Dynal Biotech ASA, Oslo, Norway) in 100 μl of RSB-500 buffer ([…]) containing 2 mg/ml heparin, 0.1% NP-40, and 0.2 U/.μl RNasin Plus RNase inhibitor (Promega, Madison, Wis.) were added to each well. Immunoprecipitations in the 96-well plates were carried out with gentle mixing at 750 rpm in a Thermomixer (Eppendorf, Germany) at 30° C. for 1 hour. The plates were subsequently transferred to a Kingfisher 96 magnetic particle processor (Thermo Labsystems, Vantaa, Finland) for automatic washing of the Dynabeads in each well with wash buffer (RSB-500, 0.1% NP-40) 5 times. After the last wash, beads bound to Y12 immunoprecipitated snRNPs were then resuspended in 120 μl of wash buffer containing 0.08 μg/ml horseradish peroxidase (HRP)-conjugated NeutrAvidin.TM. (Pierce, Rockford, Ill.). Following incubation at 30° C. for 1 hour with gentle mixing, the beads in each well were again washed five times with the Kingfisher 96 magnetic particle processor, and finally resuspended in 150 μl of SuperSignal ELISA Femto Substrate Working Solution (Pierce). […]

Experiment [2] has as its target T1, SMN complex. The experiment is described as follows: Magnetic beads snRNP assembly assay on extracts from compound-treated HeLa cells. The format is cell-based. How it is done: (§2) (B) Concentration-dependent inhibition of the activity of the SMN complex by b-lapachone in cells. HeLa cells were treated with various concentrations of β-lapachone or with DMSO (control) for 1 hour. The activity of the SMN complex in extracts from treated cells was measured using magnetic beads snRNP assembly assay and compared to that of DMSO-treated control cells (100% activity). IC50 was calculated from the dose-response graph. The error bars represent SDs from 3 independent measurements. […] Assembly reactions were performed using either cell extracts or purified native […] snRNP proteins lacking the SMN complex (Sm proteins). Both samples were adjusted to contain a similar amount of Sm proteins. Magnetic beads snRNP assembly assay were carried out with U4 or control U4DSm snRNA in the presence of either 20 or 100 μM β-lapachone or DMSO control. Sm core assembly on U4 snRNA in the presence of DMSO was considered 100% activity. The error bars represent SDs from 3 independent measurements.
In vitro transcription and labeling of RNAs was carried out using MEGAshortscript T7 transcription kit (Ambion) with the modification that 0.65 μM biotin-16-UTP (Roche) and 2.6 μM UTP were used in the reactions to produce biotinlabeled RNAs (Wan et al., 2005). Cell culture, drug treatment and preparation of cell extracts HeLa S3 cell pellets were purchased from National Cell Culture Center. Cytoplasmic extracts competent for snRNP assembly were prepared as described (Pellizzoni et al., 2002). Total cell extracts were made by resuspending cell pellets in reconstitution buffer ([…], 0.2 mM EDTA, 5% glycerol) containing 50 µg/ml digitonin (Calbiochem) and 1× Complete EDTA-free Protease Inhibitor Cocktail (Roche), followed by sonication. Nonidet P-40 (NP-40) was added to a final concentration of 0.01%, followed by centrifugation at 10,000 rpm for 15 minutes at 4° C. Glycerol was then added to the supernatant at a final concentration of 5%. For various drug treatments, two 10 cm plates of HeLa PV cells were treated with each drug at the indicated concentrations and times. Cells were harvested (˜90% confluent) and total cell extracts prepared using the aforementioned procedures. Protein concentrations of various extracts were determined using the Bradford protein assay (BioRad). All of the extracts for the same experiment were adjusted to the same final protein concentration
For quantitative in vitro assembly assays on magnetic beads, cytoplasmic extracts were prepared and used for assembly on biotin-labeled snRNAs using the standard reconstitution conditions in 96-well plates. […] The plates were transferred to a Wallac Victor2 multi-label plate reader (Perkin-Elmer, Wellesley, Mass.) for luminescence measurements at 495 nm. […]

The subject of another experiment is ROS in HeLa cells. The experiment in a line: ROS detection in live HeLa cells with H2DCFDA dye. The experiment is classed as cell-based, human. The following applies: for ROS generation in live cells (H2DCFDA fluorescence): 10 μM H2DCFDA, images 30 minutes after treatment. How it is done:
as §1
Additional direct evidence for the ROS-generating activity of the compounds in live cells was obtained by staining cells with 2′,7′-dichlorodihydrofluorescein diacetate (H2DCFDA), a nonfluorescent dye that becomes fluorescent upon exposure to ROS. […] A significant level of ROS was apparent at 0.5 μM β-lapachone and increased proportionally with increasing b-lapachone concentrations.

Experiment [3] concerns transfected luciferase reporter. The experiment in a line: Transcription and translation of a transfected luciferase reporter in treated cells. The format is cell-based.
In a further experiment the test system is SMN protein. The experiment is described as follows: Quantitative non-reducing Western blot of SMN in extracts of treated HeLa cells. The format is cell-based, human. Particulars: 5 μM for 3 hours, prepared without DTT.
Another experiment has as its system T2, Sm proteins.
T2 construct: Native, RNA-free total snRNP proteins (TPs) were prepared from HeLa S3 cells; endogenous in cells; host or cells: HeLa S3 cells (pellets from National Cell Culture Center); proteins purified in house by the method of Sumpter et al., 1992
The experiment in a line: Sm core assembly from purified native snRNP proteins lacking the SMN complex. The experiment is classed as biochemical, human. Particulars: U4 snRNA, 20 or 100 μM. How it is done:
as §2
Native, RNA-free total snRNP proteins (TPs) were prepared from HeLa S3 cells (National Cell Culture Center) as described previously (Sumpter et al., 1992). […] The other half of the samples were immunoprecipitated with anti-Sm monoclonal antibody (Y12), and the immunoprecipitated RNAs were isolated and analyzed by electrophoresis on […] urea/8% polyacrylamide gels. […]

For the next experiment, the system named is SMN. The experiment is described as follows: Indirect immunofluorescence of SMN (2B1) and snRNPs (Y12) in HeLa PV cells. The format is cell-based, human. Particulars: 5 μM for 3 hours vs DMSO control.

T1 sequence (Q16637 2-294 limits assumed): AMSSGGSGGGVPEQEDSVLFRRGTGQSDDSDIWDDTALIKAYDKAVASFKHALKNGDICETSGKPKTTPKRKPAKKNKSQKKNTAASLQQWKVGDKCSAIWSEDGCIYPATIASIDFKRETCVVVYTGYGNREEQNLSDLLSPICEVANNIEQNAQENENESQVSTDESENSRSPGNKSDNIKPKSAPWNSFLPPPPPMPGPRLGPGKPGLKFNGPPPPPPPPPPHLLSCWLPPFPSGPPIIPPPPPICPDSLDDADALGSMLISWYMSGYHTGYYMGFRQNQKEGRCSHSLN
T1 sequence (O14893 whole entry partner): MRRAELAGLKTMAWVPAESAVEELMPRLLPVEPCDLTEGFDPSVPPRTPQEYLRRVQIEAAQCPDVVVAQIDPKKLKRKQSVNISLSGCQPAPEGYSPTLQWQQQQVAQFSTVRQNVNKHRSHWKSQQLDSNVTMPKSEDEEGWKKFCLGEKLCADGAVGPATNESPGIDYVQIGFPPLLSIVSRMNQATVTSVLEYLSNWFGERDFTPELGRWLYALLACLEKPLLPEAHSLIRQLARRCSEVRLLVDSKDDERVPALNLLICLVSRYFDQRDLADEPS
Description for SMN protein: (B) HeLa total cell extracts prepared from cells treated for 3 hours with 5 μM β-lapachone or DMSO control were resolved by SDS-PAGE and analyzed by quantitative Western blotting, using JBP1 and Magoh as loading controls. The extracts were prepared and mixed with sample buffer without reducing agent. The membrane was cut into strips for the probing of each protein at the corresponding molecular mass.
For quantitative Western blot, cell extracts containing 20 g of total proteins were mixed with NuPAGE LDS sample buffer (Invitrogen) with or without reducing agent (Invitrogen), boiled for 5 minutes, and then separated on NuPAGE 4-12% Bis-Tris gels (Invitrogen) and transferred to nitrocellulose membranes. […] Mouse monoclonal antibodies, anti-SMN (62E7), anti-Gemin3 (12H12), anti-Gemin4 (17D10), anti-Gemin5 (10G11), anti-JBP1 (6G8), anti-Magoh (18G12) and anti-Sm (Y12), were used as described previously (Battle et al., 2006b; Lerner et al., 1981; Wan et al., 2005). The IRDye800 anti-mouse IgG secondary antibody (Rockland) was used at 1:5000.
To test this, extracts from b-lapachone-treated cells (at 5 μM for 3 hours) or DMSO-treated control cells were prepared in gel electrophoresis sample buffer without the reducing agent dithiothreitol (DTT) to preserve potential disulfides, resolved by SDS-PAGE, and analyzed by quantitative Western blots. […]

On to `O[C@H](CS)[C@H](O)CS` (racemic) [DTT, dithiothreitol], for which the “prevention of the inhibitory effect of b-lapachone on SMN complex activity” value on SMN complex [1] (20 μM b-lapachone with 20 μM DTT) was “completely neutralized”.
For the compound `O=C1C(=O)c2ccccc2-c2ccccc21` [9,10-phenanthrenequinone], the “inhibition of the SMN complex / assembly in cell extracts (in words)” value (shortened to “inhibition of the SMN complex / assembly”) against SMN complex [1] (in vitro) is “strongly inhibit”.
In the case of `OO` [H2O2, hydrogen peroxide], the “IC50, inhibition of the activity of the SMN complex in vitro” value on SMN complex [1] (in vitro, value in words) is “low millimolar range”.
In the case of `CC(=O)N[C@@H](CS)C(=O)O` [N-acetyl-L-cysteine], the “prevention of the inhibition of b-lapachone, menadione and H2O2” value at SMN complex [1] (in vitro assembly reactions) is given as “completely prevented”.
On to `NC(=O)CI` [iodoacetamide], for which the “inhibition of the SMN complex / assembly” value on SMN complex [1] (in vitro) is listed as “inhibits”.
For `CC1=CC(=O)c2ccccc2C1=O` [menadione, 2-methyl-1,4-napthoquinone], the “inhibition of SMN complex activity in cells” value at SMN complex [2] (HeLa cells treated for 1 hour) was “dose-dependent inhibition”. Further, the “ROS generation in live cells (H2DCFDA fluorescence)” value with ROS in HeLa cells is given as “Dose-dependent fluorescence”. Moreover, the IC50 at SMN complex [1] was determined as 25 µM.
As for `O=C1C(=O)C(Cl)=C(Cl)C(Cl)=C1Cl` [tetrachloro-1,2-benzoquinone], the “inhibition of the SMN complex / assembly” value at SMN complex [1] (in vitro) is recorded as “strongly inhibit”.
For `CC1(C)CCC2=C(O1)C(=O)c1ccccc1C2=O` [α-lapachone], the “inhibition of the SMN complex / assembly” value on SMN complex [1] (in vitro) is on record as “does not inhibit”.
As for `CC1(C)CCC2=C(O1)c1ccccc1C(=O)C2=O` [β-lapachone, 3,4-dihydro-2,2-dimethyl-2H-naphthol[1,2-b]pyran-5,6-dione], the “inhibition of transcription and translation of a transfected luciferase reporter” value in experiment [3] is listed as “did not significantly inhibit”. For the same compound, the half-maximal inhibitory concentration (IC50) at SMN complex [2] (HeLa cells treated for 1 hour, read-out: IC50, inhibition of the activity of the SMN complex in treated cells) is 0.45 µM; at SMN complex [1] it was about 30 µM. The “inhibition of snRNP assembly activity” value on SMN complex [2] (extracts from cells treated for 6 hours with subtoxic concentration) is “about 90%”. Moreover, the “inhibition of snRNP assembly” value on SMN complex [2] (within 30 minutes of treatment) is reported as over 80%. The “decrease of intensity of the SMN band (monomer) compared to DMSO controls” value in the experiment with SMN protein is recorded as about 60%. Moreover, in the experiment on Sm proteins, the “effect on Sm core formation from the purified snRNP proteins” value is recorded as “no effect”. Moreover, in the experiment with ROS in HeLa cells, the “ROS generation in live cells (H2DCFDA fluorescence)” value is on record as “Dose-dependent fluorescence”. For the same compound, in the experiment with ROS in HeLa cells (HeLa cells, H2DCFDA), the “concentration at which a significant level of ROS was apparent” value was found to be 0.5 µM. The “inhibition of the SMN complex / assembly” value on SMN complex [1] (in vitro) is on record as “inhibited assembly in the cell extracts”. Besides, in the experiment on SMN, the “SMN signal intensity or localization” value is listed as “no detectable difference”.
